Experimental data published in patent US20060051291A1, “Synthesis of radiolabeled sugar metal complexes” (priority 2004, published 2006).

Assay type: physicochemical
Excerpt: Minor species are also detected by UV/visible spectroscopy in the HPLC of the complex and become more significant over time. The ^13C{^1H} NMR spectrum (d6-DMSO) of the complex was fully assigned for the α-anomer, and partially assigned for the β-anomer (as reflected above in TABLE 1).

- stability in solution: become visibly brown
Substance: Tricarbonyl (N-(2′-Hydroxybenzyl)-2-amino-2-deoxy-D-glucose) rhenium(I) [[(L^2)Re(CO)3]]
